Measurements reported in patent US12559492B2, “BRAF degraders” (C4 Therapeutics, Inc., priority 2020, dated 2026).

Molecular target: BRAF^V600E protein (Homo sapiens, UniProt P15056, V600E)
Test: HiBiT cellular BRAF V600E degradation assay
Assay type: cell-based
Conditions: 24 h incubation; for DC50: A375.10 cells (HiBiT tag knocked in at N-terminal of BRAF V600E), concentration at which 50% of total cellular BRAF V600E is degraded; for Emax: read-out: HiBit 24 h Emax
Text: DMEM no-phenol red medium supplemented with L-glutamine was purchased from (Corning). Fetal bovine serum (FBS) was purchased from Gibco (Grand Island, NY, USA). Nano-Glo® HiBiT Lytic Assay Buffer & Reagents were purchased from Promega (Madison, WI, USA). […] Cell culture flasks and 384-well black flat-bottom polystyrene TC-treated microplates were acquired from Corning (Corning, NY, USA).
HiBiT Cellular BRAFv^600E Degradation Assay
Prior to the assay, the A375.10 cell line is maintained in DMEM no-phenol red medium supplemented with 10% fetal bovine serum (FBS). […] Briefly, test compounds were added to the 384-well plate from a top concentration of 10 μM with 11 half log dilutions of compound, plated in duplicate. Then, 30 uL of a suspension of A375.10 cell lines was dispensed into columns 1-24 of the 384-well plates at a cell density of 7500 cells per well. The plates were kept at 37° C. with 5% CO2 for the duration of the assay (6 or 24 hr). After the desired incubation time with compound, 30 uL of Nano-Glo® HiBiT Lytic Buffer containing LgBiT protein (diluted 1:100) and luminescence substrate (diluted 1:50) were added to the cells in columns 1-23 of the assay plate. The plate was the incubated for 30 min on the bench at room temperature. Finally, HiBiT luminescence signal was acquired on EnVision™ Multilabel Reader (PerkinElmer, Santa Clara, CA, USA).
Quantification of luminescence responses measured in the presence of compound were normalized to a high signal/no degradation control (untreated cells+lytic detection reagent) and a low signal/full degradation control (untreated cells, no lytic detection reagent). Data were analyzed with a 4-parameter logistic fit to generate sigmoidal dose-response curves. […] The Emax, or maximum effect of each compound, represents the amount of residual protein remaining in the cell following compound treatment.

[1] = A375.10 cells, Emax = amount of residual protein remaining in the cell after compound treatment

BRAF^V600E protein, sequence (P15056 whole entry V600E): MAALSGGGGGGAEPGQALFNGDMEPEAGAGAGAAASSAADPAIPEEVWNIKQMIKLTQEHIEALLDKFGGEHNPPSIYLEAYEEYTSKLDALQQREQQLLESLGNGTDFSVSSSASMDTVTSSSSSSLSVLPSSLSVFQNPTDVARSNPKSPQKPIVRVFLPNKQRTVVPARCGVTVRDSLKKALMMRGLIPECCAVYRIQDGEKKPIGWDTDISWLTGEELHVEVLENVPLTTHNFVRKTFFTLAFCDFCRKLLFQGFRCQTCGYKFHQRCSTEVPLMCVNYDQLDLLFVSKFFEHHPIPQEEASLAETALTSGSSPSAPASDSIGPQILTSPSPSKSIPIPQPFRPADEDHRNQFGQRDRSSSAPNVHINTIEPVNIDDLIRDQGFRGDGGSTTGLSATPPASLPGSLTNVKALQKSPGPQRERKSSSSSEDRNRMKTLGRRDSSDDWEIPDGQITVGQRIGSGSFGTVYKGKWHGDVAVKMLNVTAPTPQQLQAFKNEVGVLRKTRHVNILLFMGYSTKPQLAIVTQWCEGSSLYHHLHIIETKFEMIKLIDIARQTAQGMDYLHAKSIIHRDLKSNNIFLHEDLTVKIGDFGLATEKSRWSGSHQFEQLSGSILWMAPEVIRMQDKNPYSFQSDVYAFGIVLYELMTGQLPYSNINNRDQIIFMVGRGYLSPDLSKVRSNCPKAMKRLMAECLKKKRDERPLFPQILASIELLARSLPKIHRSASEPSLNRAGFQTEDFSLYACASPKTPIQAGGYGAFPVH

Structure (SMILES)	DC50 [nM]	Emax [1] [%]	HiBit 24 h Emax [1] [%]
CCN(C)S(=O)(=O)Nc1ccc(F)c(C(=O)c2c[nH]c3ncc(-c4cnc(N5CCN(C(=O)CC6(O)CCN(c7ccc(C8CCC(=O)NC8=O)cc7F)CC6)CC5)nc4)cc23)c1F (racemic) [Example 158, 5-[2-[4-[2-[1-[4-(2,6-dioxo-3-piperidyl)-2-fluoro-phenyl]-4-hydroxy-4-piperidyl]acetyl]piperazin-1-yl]pyrimidin-5-yl]-3-[3-[[ethyl(methyl)sulfamoyl]amino]-2,6-difluoro-benzoyl]-1H-pyrrolo[2,3-b]pyridine]	2.73	9.38	–
CCN(C)S(=O)(=O)Nc1ccc(F)c(C(=O)c2c[nH]c3ncc(-c4ccc(N5C[C@H]6CC[C@@H](C5)N6C(=O)CN5CCC(c6ccc(NC7CCC(=O)NC7=O)cc6)CC5)nc4)cc23)c1F (mixture of isomers) [Example A71, 3-[3-[[Ethyl(methyl)sulfamoyl]amino]-2,6-difluorobenzoyl]-5-[6-[rac-(1R,5S)-8-[2-[4-[4-[(2,6-dioxopiperidin-3-yl)amino]phenyl]piperidin-1-yl]acetyl]-3,8-diazabicyclo[3.2.1]octan-3-yl]pyridin-3-yl]-1H-pyrrolo[2,3-b]pyridine]	28	23	–
O=C1CCC(Nc2ccc(C3CCN(CC(=O)N4[C@@H]5CCC[C@H]4CN(c4ccc(-c6cnc7[nH]cc(C(=O)c8c(F)ccc(NS(=O)(=O)N9CCCC9)c8F)c7c6)cn4)C5)CC3)cc2)C(=O)N1 (mixture of isomers) [Example A84, N-[2,4-Difluoro-3-[5-[6-[rac-(1R,5S)-9-[2-[4-[4-[(2,6-dioxopiperidin-3-yl)amino]phenyl]piperidin-1-yl]acetyl]-3,9-diazabicyclo[3.3.1]nonan-3-yl]pyridin-3-yl]-1H-pyrrolo[2,3-b]pyridine-3-carbonyl]phenyl]pyrrolidine-1-sulfonamide]	11	11	–
CCN(C)S(=O)(=O)Nc1ccc(F)c(C(=O)c2c[nH]c3ncc(-c4cnc(N5CCN(C(=O)CC6CCC(c7ccc(NC8CCC(=O)NC8=O)cc7)CC6)CC5)nc4)cc23)c1F (single isomer, unassigned) [Example 35, 5-[2-[4-[2-[4-[4-[(2,6-dioxo-3-piperidyl)amino]phenyl]cyclohexyl]acetyl]piperazin-1-yl]pyrimidin-5-yl]-3-[3-[[ethyl(methyl)sulfamoyl]amino]-2,6-difluoro-benzoyl]-1H-pyrrolo[2,3-b]pyridine]	25	23.1	–
CCN(C)S(=O)(=O)Nc1ccc(F)c(C(=O)c2c[nH]c3ncc(-c4cnc(N5CCN(C(=O)CC6CCC(c7ccc(NC8CCC(=O)NC8=O)cc7)CC6)CC5)nc4)cc23)c1F (single isomer, unassigned) [Example 36, 5-[2-[4-[2-[4-[4-[(2,6-dioxo-3-piperidyl)amino]phenyl]cyclohexyl]acetyl]piperazin-1-yl]pyrimidin-5-yl]-3-[3-[[ethyl(methyl)sulfamoyl]amino]-2,6-difluoro-benzoyl]-1H-pyrrolo[2,3-b]pyridine]	21	–	16.12
CCN(C)S(=O)(=O)Nc1ccc(F)c(C(=O)c2c[nH]c3ncc(-c4cnc(N5CCN(C(=O)CC6(O)CCN(c7ccc(N[C@H]8CCC(=O)NC8=O)cc7F)CC6)CC5)nc4)cc23)c1F (single isomer, unassigned) [Example 166]	2.82	8.9	–
CCN(C)S(=O)(=O)Nc1ccc(F)c(C(=O)c2c[nH]c3ncc(-c4ccc(N5CCN(C(=O)CN6CCC(c7ccc(NC8CCC(=O)NC8=O)cc7)C(F)(F)C6)CC5)nc4)cc23)c1F (stereo in doubt) [Example 77, 5-[6-[4-[2-[(4R)-4-[4-[(2,6-dioxo-3-piperidyl)amino]phenyl]-3,3-difluoro-1-piperidyl]acetyl]piperazin-1-yl]-3-pyridyl]-3-[3-[[ethyl(methyl)sulfamoyl]amino]-2,6-difluoro-benzoyl]-1H-pyrrolo[2,3-b]pyridine]	3.49	9.19	–
CCCS(=O)(=O)Nc1ccc(F)c(C(=O)c2c[nH]c3ncc(-c4cnc(N5CCN(C(=O)CN6CCC(c7ccc(NC8CCC(=O)NC8=O)cc7)CC6)CC5)nc4)cc23)c1F (stereo not drawn) [Example 1, N-[3-[5-[2-[4-[2-[4-[4-[(2,6-dioxo-3-piperidyl)amino]phenyl]-1-piperidyl]acetyl]piperazin-1-yl]pyrimidin-5-yl]-1H-pyrrolo[2,3-b]pyridine-3-carbonyl]-2,4-difluoro-phenyl]propane-1-sulfonamide]	0.79	7.81	–
CCCS(=O)(=O)Nc1ccc(F)c(C(=O)c2c[nH]c3ncc(-c4cnc(N5CCN(C(=O)CN6CCC(c7ccc(OC8CCC(=O)NC8=O)cc7)CC6)CC5)nc4)cc23)c1F (stereo not drawn) [Example 2, N-[3-[5-[2-[4-[2-[4-[4-[(2,6-dioxo-3-piperidyl)oxy]phenyl]-1-piperidyl]acetyl]piperazin-1-yl]pyrimidin-5-yl]-1H-pyrrolo[2,3-b]pyridine-3-carbonyl]-2,4-difluoro-phenyl]propane-1-sulfonamide]	12.2	7.81	–
CCCS(=O)(=O)Nc1ccc(F)c(C(=O)c2c[nH]c3ncc(-c4ccc(N5CCN(C(=O)CN6CCC(c7ccc(NC8CCC(=O)NC8=O)cc7)CC6)CC5)nc4)cc23)c1F (stereo not drawn) [Example 3, N-[3-[5-[6-[4-[2-[4-[4-[(2,6-dioxo-3-piperidyl)amino]phenyl]-1-piperidyl]acetyl]piperazin-1-yl]-3-pyridyl]-1H-pyrrolo[2,3-b]pyridine-3-carbonyl]-2,4-difluoro-phenyl]propane-1-sulfonamide]	3.04	9.6	–
CC(C)S(=O)(=O)Nc1ccc(F)c(C(=O)c2c[nH]c3ncc(-c4cnc(N5CCN(C(=O)CN6CCC(c7ccc(NC8CCC(=O)NC8=O)cc7)CC6)CC5)nc4)cc23)c1F (stereo not drawn) [Example 5, N-[3-[5-[2-[4-[2-[4-[4-[(2,6-dioxo-3-piperidyl)amino]phenyl]-1-piperidyl]acetyl]piperazin-1-yl]pyrimidin-5-yl]-1H-pyrrolo[2,3-b]pyridine-3-carbonyl]-2,4-difluoro-phenyl]propane-2-sulfonamide]	3.94	8.8	–
CC(C)S(=O)(=O)Nc1ccc(F)c(C(=O)c2c[nH]c3ncc(-c4cnc(N5CCN(C(=O)CN6CCC(c7ccc(NC8CCC(=O)NC8=O)cc7F)CC6)CC5)nc4)cc23)c1F (stereo not drawn) [Example 6, N-[3-[5-[2-[4-[2-[4-[4-[(2,6-dioxo-3-piperidyl)amino]-2-fluoro-phenyl]-1-piperidyl]acetyl]piperazin-1-yl]pyrimidin-5-yl]-1H-pyrrolo[2,3-b]pyridine-3-carbonyl]-2,4-difluoro-phenyl]propane-2-sulfonamide]	5.59	7.96	–
CC(C)S(=O)(=O)Nc1ccc(F)c(C(=O)c2c[nH]c3ncc(-c4cnc(N5CCN(C(=O)CN6CCC(c7ccc(OC8CCC(=O)NC8=O)cc7)CC6)CC5)nc4)cc23)c1F (stereo not drawn) [Example 7, N-[3-[5-[2-[4-[2-[4-[4-[(2,6-dioxo-3-piperidyl)oxy]phenyl]-1-piperidyl]acetyl]piperazin-1-yl]pyrimidin-5-yl]-1H-pyrrolo[2,3-b]pyridine-3-carbonyl]-2,4-difluoro-phenyl]propane-2-sulfonamide]	12.5	10.3	–
CC(C)S(=O)(=O)Nc1ccc(F)c(C(=O)c2c[nH]c3ncc(-c4cnc(N5CCN(C(=O)CN6CCC(c7ccc(C8CCC(=O)NC8=O)cc7)CC6)CC5)nc4)cc23)c1F (stereo not drawn) [Example 8, N-[3-[5-[2-[4-[2-[4-[4-(2,6-dioxo-3-piperidyl)phenyl]-1-piperidyl]acetyl]piperazin-1-yl]pyrimidin-5-yl]-1H-pyrrolo[2,3-b]pyridine-3-carbonyl]-2,4-difluoro-phenyl]propane-2-sulfonamide]	4.67	2.37	–

Further lines, results first:

DC50 [nM]	Emax [1] [%]	HiBit 24 h Emax [1] [%]	Structure (SMILES)
1.99	7.84	–	[2H][C@@]1(c2ccc(N3CCC(O)(CC(=O)N4CCN(c5ncc(-c6cnc7[nH]cc(C(=O)c8c(F)ccc(NS(=O)(=O)N(C)CC)c8F)c7c6)cn5)CC4)CC3)c(F)c2)CCC(=O)NC1=O (single isomer, unassigned) [Example 158c]
205	11.6	–	[2H][C@]1(c2ccc(N3CCC(O)(CC(=O)N4CCN(c5ncc(-c6cnc7[nH]cc(C(=O)c8c(F)ccc(NS(=O)(=O)N(C)CC)c8F)c7c6)cn5)CC4)CC3)c(F)c2)CCC(=O)NC1=O (single isomer, unassigned) [Example 158d]
4	6	–	CCN(C)S(=O)(=O)Nc1ccc(F)c(C(=O)c2c[nH]c3ncc(-c4cnc(N5CCN(C(=O)CN6CCC(c7ccc(N[C@@H]8CCC(=O)NC8=O)cc7)CC6)CC5)nc4)cc23)c1F (single isomer, unassigned) [Example A103]
4	7	–	CCN(C)S(=O)(=O)Nc1ccc(F)c(C(=O)c2c[nH]c3ncc(-c4cnc(N5CCN(C(=O)CN6CCC(c7ccc(N[C@H]8CCC(=O)NC8=O)cc7)CC6)CC5)nc4)cc23)c1F (single isomer, unassigned) [Example A111]
